Measurements: ChEMBL document CHEMBL3877309, “Determination of binding modes and binding constants for the complexes of 6H-pyrido[4,3-b]carbazole derivatives with DNA” (Bioorg Med Chem, 2017)
Calls of active or inactive are those of the source. The rule behind the calls is not given here.

Columns and labels:
[1] = Selectivity index, ratio of IC50 for mouse NIH/3T3 cells to IC50 for mouse Sarcoma 180 cells; assay type: functional
[2] = Cytotoxicity against mouse Sarcoma 180 cells assessed as reduction in cell viability after 72 hrs by MTT assay; assay type: functional, cell-based; conditions: Sarcoma-180, 72 h
HeLa S3 = assay: Selectivity ratio of IC50 for human HeLaS3 cells to IC50 for mouse Sarcoma 180 cells; assay type: functional
Salmonidae = assay: Binding affinity to salmon sperm DNA assessed as DNA intercalation at 0.04 mole fraction after 5 mins by UV-Vis spectroscopic method
[3] = Cytotoxicity against human HeLaS3 cells assessed as reduction in cell viability after 72 hrs by MTT assay; assay type: functional, cell-based; conditions: HeLa S3, 72 h
[4] = Cytotoxicity against mouse NIH/3T3 cells assessed as reduction in cell viability after 72 hrs by MTT assay; assay type: toxicity, cell-based, NIH3T3
[5] = Binding affinity to synthetic biotin-labeled 30-mer GC-rich duplex DNA in pH 7.4 EDTA buffer solution in presence of 0.05 M NaCl at 25 degC by QCM sensogram analysis
[6] = Binding affinity to synthetic biotin-labeled 30-mer AT-rich duplex DNA in pH 7.4 EDTA buffer solution in presence of 0.05 M NaCl at 25 degC by QCM sensogram analysis
[7] = Ratio of Ka for synthetic biotin-labeled 30-mer GC-rich duplex DNA in presence of 200 mM NaCl to Ka for synthetic biotin-labeled 30-mer GC-rich duplex DNA in presence of 50 mM NaCl
[8] = Binding affinity to synthetic biotin-labeled 30-mer GC-rich duplex DNA in pH 7.4 EDTA buffer solution in presence of 200 mM NaCl at 25 degC by QCM sensogram analysis
[9] = Binding affinity to synthetic biotin-labeled 30-mer GC-rich duplex DNA in pH 7.4 EDTA buffer solution in presence of 50 mM NaCl at 25 degC by QCM sensogram analysis
[10] = Binding affinity to synthetic biotin-labeled 30-mer AT-rich duplex DNA in pH 7.4 EDTA buffer solution assessed as association rate constant in presence of 0.05 M NaCl at 25 degC by QCM sensogram analysis
[11] = Binding affinity to synthetic biotin-labeled 30-mer GC-rich duplex DNA in pH 7.4 EDTA buffer solution assessed as ratio of association rate constant to dissociation rate constant in presence of 0.05 M NaCl at 25 degC by QCM sensogram analysis
[12] = Binding affinity to synthetic biotin-labeled 30-mer AT-rich duplex DNA in pH 7.4 EDTA buffer solution assessed as ratio of association rate constant to dissociation rate constant in presence of 0.05 M NaCl at 25 degC by QCM sensogram analysis
[13] = Binding affinity to synthetic biotin-labeled 30-mer GC-rich duplex DNA in pH 7.4 EDTA buffer solution assessed as dissociation rate constant in presence of 0.05 M NaCl at 25 degC by QCM sensogram analysis
[14] = Binding affinity to synthetic biotin-labeled 30-mer AT-rich duplex DNA in pH 7.4 EDTA buffer solution assessed as dissociation rate constant in presence of 0.05 M NaCl at 25 degC by QCM sensogram analysis
[15] = Binding affinity to synthetic biotin-labeled 30-mer GC-rich duplex DNA in pH 7.4 EDTA buffer solution assessed as association rate constant in presence of 0.05 M NaCl at 25 degC by QCM sensogram analysis
[16] = Binding affinity to synthetic biotin-labeled 30-mer AT-rich duplex DNA in pH 7.8 Tris-Hcl buffer solution assessed as association rate constant in presence of 0.1 M NaCl at 25 degC by QCM sensogram analysis
[17] = Binding affinity to synthetic biotin-labeled 30-mer GC-rich duplex DNA in pH 7.8 Tris-Hcl buffer solution assessed as association rate constant in presence of 0.1 M NaCl at 25 degC by QCM sensogram analysis
[18] = Binding affinity to synthetic biotin-labeled 30-mer AT-rich duplex DNA in pH 7.8 Tris-Hcl buffer solution assessed as dissociation rate constant in presence of 0.1 M NaCl at 25 degC by QCM sensogram analysis
[19] = Binding affinity to synthetic biotin-labeled 30-mer GC-rich duplex DNA in pH 7.8 Tris-Hcl buffer solution assessed as ratio of association rate constant to dissociation rate constant in presence of 0.1 M NaCl at 25 degC by QCM sensogram analysis
[20] = Binding affinity to synthetic biotin-labeled 30-mer AT-rich duplex DNA in pH 7.8 Tris-Hcl buffer solution assessed as ratio of association rate constant to dissociation rate constant in presence of 0.1 M NaCl at 25 degC by QCM sensogram analysis
[21] = Binding affinity to synthetic biotin-labeled 30-mer GC-rich duplex DNA in pH 7.8 Tris-Hcl buffer solution assessed as dissociation rate constant in presence of 0.1 M NaCl at 25 degC by QCM sensogram analysis

SMILES	IC50 [2]	Activity (Salmonidae)	IC50 [3]	IC50 at 72 h [4]	further results
Cc1c2c[n+](CCCCCN)ccc2c(C)c2c1c1cc(O)ccc1n2C.[Cl-]	1.4 µM	Active	–	–	Ratio IC50 [1]: 3 - 24; Ratio IC50 (HeLa S3): 13 - 37
CNC(=O)NCCNC(=O)c1c2cc[n+](C)cc2c(C)c2c1[nH]c1ccccc12	> 100 µM	Active	> 100 µM	> 100 µM	–
COC(=O)c1c2cc[n+](CCNCCN)cc2c(C)c2c1[nH]c1ccccc12	1.2 µM	Active	–	1.87 µM	–
Cc1c2cnccc2c(C(=O)NCCCCN)c2[nH]c3ccccc3c12	–	–	–	–	Ka [5]: 0.733 ×10⁵ /M; Ka [6]: 0.279 ×10⁵ /M
Cc1c2cc[n+](C)cc2c(C)c2c1[nH]c1ccccc12	0.7 µM	Active	2.9 µM	2 µM	–
COC(=O)c1c2cc[n+](CCN)cc2c(C)c2c1[nH]c1ccccc12.[Cl-]	0.52 µM	Active	–	0.78 µM	Ratio IC50 [1]: 3 - 24; Ratio IC50 (HeLa S3): 13 - 37
CNC(=O)NCCNC(=O)c1c2ccncc2c(C)c2c1[nH]c1ccccc12	15 µM	Active	15 µM	11 µM	–
CNC(=O)NCCCCC[n+]1ccc2c(C)c3c(c(C)c2c1)c1cc(O)ccc1n3C	–	–	–	–	Ka [5]: 28.5 ×10⁵ /M; Ka [6]: 15.8 ×10⁵ /M; Ratio [7]: 0.4 to 0.5; Ka [8]: 17.9 ×10⁵ /M; Ka [9]: 28.5 ×10⁵ /M
Cc1c2cnccc2c(C(=O)NCCN)c2[nH]c3ccccc3c12	2.2 µM	Active	2.4 µM	1.4 µM	–
Cc1c2cc[n+](C)cc2c(C)c2c1[nH]c1ccc(O)cc12	–	Active	–	–	Ka [5]: 47.2 ×10⁵ /M; Ka [6]: 35.1 ×10⁵ /M; K [10]: 0.78 ×10⁴ /M/s; Ratio [11]: 6.37 ×10⁶ /M; Ratio [12]: 0.97 ×10⁶ /M; K [13]: 2.01 ×10⁻³ /s; K [14]: 8.05 ×10⁻³ /s; K [15]: 1.28 ×10⁴ /M/s
CNC(=O)NCCCNC(=O)c1c2cc[n+](C)cc2c(C)c2c1[nH]c1ccccc12	34 µM	Active	> 22 µM	31 µM	–
Cc1c2c[n+](C)ccc2c(C(=O)NCCCN)c2[nH]c3ccccc3c12	26 µM	Active	> 26 µM	42 µM	–
COC(=O)c1c2cc[n+](C)cc2c(C)c2c1[nH]c1ccccc12	1 µM	Active	1.2 µM	1.2 µM	–
CNC(=O)NCCNCCNC(=O)c1c2cc[n+](C)cc2c(C)c2c1[nH]c1ccccc12	78 µM	–	> 100 µM	45 µM	–
Cc1c2cnccc2c(C)c2c1c1ccccc1n2C	0.5 µM	Active	0.93 µM	–	–
Cc1c2cc[n+](CCN)cc2c(C)c2c1[nH]c1ccccc12	3.2 µM	Active	6.58 µM	–	–
CNC(=O)NCCOCC[n+]1ccc2c(C)c3[nH]c4ccccc4c3c(C)c2c1	–	Active	–	–	Ka [5]: 9.9 ×10⁵ /M; Ka [6]: 3.59 ×10⁵ /M; Ratio [7]: 0.4 to 0.5; Ka [8]: 5.99 ×10⁵ /M; Ka [9]: 9.92 ×10⁵ /M
CNC(=O)NCCCCNC(=O)c1c2ccncc2c(C)c2c1[nH]c1ccccc12	–	–	–	–	Ka [5]: 0.427 ×10⁵ /M; Ka [6]: 0.185 ×10⁵ /M
COC(=O)c1c2cc[n+](CCOCCN)cc2c(C)c2c1[nH]c1ccccc12.[Cl-]	1.12 µM	Active	–	1.75 µM	Ratio IC50 [1]: 3 - 24; Ratio IC50 (HeLa S3): 13 - 37
CNC(=O)NCCOCC[n+]1ccc2c(C)c3[nH]c4ccc(O)cc4c3c(C)c2c1.[Cl-]	2.2 µM	Active	–	5 µM	Ratio IC50 [1]: 3 - 24; Ratio IC50 (HeLa S3): 13 - 37
Cc1c2c[n+](C)ccc2c(C(=O)NCCCCN)c2[nH]c3ccccc3c12	> 100 µM	Active	> 100 µM	> 100 µM	–

SMILES	IC50 [2]	Activity (Salmonidae)	IC50 [3]	IC50 at 72 h [4]	further results
Cc1c2c[n+](C)ccc2c(C(=O)NCCNCCN)c2[nH]c3ccccc3c12	> 100 µM	Active	–	86 µM	–
CC[n+]1c(-c2ccccc2)c2cc(N)ccc2c2ccc(N)cc21	–	–	–	–	K [16]: 0.17 ×10⁴ /M/s; K [17]: 1.2 ×10⁴ /M/s; K [18]: 150 ×10⁻³ /s; Ratio [19]: 0.056 ×10⁶ /M; Ratio [20]: 0.011 ×10⁶ /M; K [21]: 210 ×10⁻³ /s
Cc1c2c[n+](C)ccc2c(C(=O)NCCN)c2[nH]c3ccccc3c12	55 µM	Active	> 100 µM	70 µM	–
Cc1c2cc[n+](CCOCCN)cc2c(C)c2c1[nH]c1ccc(O)cc12.[Cl-]	1 µM	Active	–	2.4 µM	Ratio IC50 [1]: 3 - 24; Ratio IC50 (HeLa S3): 13 - 37
CNC(=O)NCCOCC[n+]1ccc2c(C)c3c(c(C)c2c1)c1cc(O)ccc1n3C	2.7 µM	Active	–	1.6 µM	–
CNC(=O)NCCNC(=O)c1c2cc[n+](C)cc2c(C)c2c1[nH]c1ccc(OC)cc12	–	Active	32 µM	–	–
CNC(=O)NCCCCNC(=O)c1c2cc[n+](C)cc2c(C)c2c1[nH]c1ccccc12	> 88 µM	Active	96 µM	> 100 µM	–
Cc1c2c[n+](CCOCCN)ccc2c(C)c2c1c1cc(O)ccc1n2C	–	Active	–	–	Ka [5]: 311 ×10⁵ /M; Ka [6]: 102 ×10⁵ /M; Ratio [7]: 0.4 to 0.5; Ka [8]: 162 ×10⁵ /M; Ka [9]: 311 ×10⁵ /M
COc1ccc2[nH]c3c(C(=O)NCCN)c4cc[n+](C)cc4c(C)c3c2c1	58 µM	Active	> 100 µM	–	–
Cc1c2c[n+](C)ccc2c(C(=O)NCCOCCN)c2[nH]c3ccccc3c12	48 µM	Active	> 100 µM	60 µM	–
Cc1c2ccncc2c(C)c2c1[nH]c1ccc(O)cc12	0.44 µM	Active	–	0.9 µM	–
Cc1c2cc[n+](CCOCCN)cc2c(C)c2c1[nH]c1ccccc12.[Cl-]	0.8 µM	Active	–	8.8 µM	Ratio IC50 [1]: 3 - 24; Ratio IC50 (HeLa S3): 13 - 37
CNC(=O)NCCOCC[n+]1ccc2c(C(=O)OC)c3[nH]c4ccccc4c3c(C)c2c1	–	Active	–	–	Ka [5]: 14.8 ×10⁵ /M; Ka [6]: 7.41 ×10⁵ /M
CNC(=O)NCCNC(=O)c1c2ccncc2c(C)c2c1[nH]c1ccc(OC)cc12	–	–	7.6 µM	–	–
CNC(=O)NCCCCCNC(=O)c1c2cc[n+](C)cc2c(C)c2c1[nH]c1ccccc12	80 µM	Active	> 100 µM	37 µM	–
CNC(=O)NCCOCCNC(=O)c1c2cc[n+](C)cc2c(C)c2c1[nH]c1ccccc12	41 µM	Active	–	18 µM	–
Cc1c2c[n+](C)ccc2c(C(=O)NCCCCCN)c2[nH]c3ccccc3c12	21 µM	Active	> 100 µM	32 µM	–
COc1ccc2[nH]c3c(C(=O)NCCN)c4ccncc4c(C)c3c2c1	–	–	1.04 µM	–	–
Cc1c2ccncc2c(C)c2c1[nH]c1ccccc12 [ELLIPTECINE]	2 µM	Active	2.1 µM	0.3 µM	–
Cc1c2c[n+](CCN)ccc2cc2[nH]c3ccccc3c12	–	Active	–	–	Ka [5]: 8.33 ×10⁵ /M; Ka [6]: 4.29 ×10⁵ /M
